Source: ChEMBL document CHEMBL4507270 (2021)

Tests used:
[1] = biological target: Tyrosine-protein kinase JAK2 (Homo sapiens) (UniProt O60674)
[2] = biological target: Phosphatidylinositol 4-phosphate 5-kinase type-1 alpha (Homo sapiens) (UniProt Q99755)
[3] = test system: Receptor-type tyrosine-protein kinase FLT3 (Homo sapiens), P36888 [UNDEFINED MUTATION]
[4] = biological target: Serine/threonine-protein kinase Nek11 (Homo sapiens) (UniProt Q8NG66)
[5] = biological target: G protein-coupled receptor kinase 3 (Homo sapiens) (UniProt P35626)
Chain of G protein-coupled receptor kinase 3 (Homo sapiens) (P35626 whole entry): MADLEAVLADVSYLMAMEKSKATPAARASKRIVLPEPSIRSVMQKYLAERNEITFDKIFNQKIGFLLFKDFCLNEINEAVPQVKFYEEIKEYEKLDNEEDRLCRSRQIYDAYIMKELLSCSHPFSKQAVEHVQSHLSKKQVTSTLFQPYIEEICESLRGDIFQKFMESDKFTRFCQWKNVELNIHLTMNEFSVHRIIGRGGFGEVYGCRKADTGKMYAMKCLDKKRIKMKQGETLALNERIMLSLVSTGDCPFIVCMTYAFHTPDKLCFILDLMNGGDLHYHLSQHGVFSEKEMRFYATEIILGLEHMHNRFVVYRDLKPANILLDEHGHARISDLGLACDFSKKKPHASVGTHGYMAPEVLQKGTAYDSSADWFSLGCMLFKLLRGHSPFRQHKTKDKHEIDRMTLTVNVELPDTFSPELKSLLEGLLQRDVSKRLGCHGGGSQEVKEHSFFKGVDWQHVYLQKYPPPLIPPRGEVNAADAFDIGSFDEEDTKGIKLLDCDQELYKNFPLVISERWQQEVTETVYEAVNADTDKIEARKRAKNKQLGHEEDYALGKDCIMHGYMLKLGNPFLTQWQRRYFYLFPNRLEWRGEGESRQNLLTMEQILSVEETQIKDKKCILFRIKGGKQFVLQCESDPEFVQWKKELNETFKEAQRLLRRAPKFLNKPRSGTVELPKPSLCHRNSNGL

[6] = biological target: Membrane-associated tyrosine- and threonine-specific cdc2-inhibitory kinase (Homo sapiens) (UniProt Q99640)
Chain of Membrane-associated tyrosine- and threonine-specific cdc2-inhibitory kinase (Homo sapiens) (Q99640 whole entry, canonical isoform): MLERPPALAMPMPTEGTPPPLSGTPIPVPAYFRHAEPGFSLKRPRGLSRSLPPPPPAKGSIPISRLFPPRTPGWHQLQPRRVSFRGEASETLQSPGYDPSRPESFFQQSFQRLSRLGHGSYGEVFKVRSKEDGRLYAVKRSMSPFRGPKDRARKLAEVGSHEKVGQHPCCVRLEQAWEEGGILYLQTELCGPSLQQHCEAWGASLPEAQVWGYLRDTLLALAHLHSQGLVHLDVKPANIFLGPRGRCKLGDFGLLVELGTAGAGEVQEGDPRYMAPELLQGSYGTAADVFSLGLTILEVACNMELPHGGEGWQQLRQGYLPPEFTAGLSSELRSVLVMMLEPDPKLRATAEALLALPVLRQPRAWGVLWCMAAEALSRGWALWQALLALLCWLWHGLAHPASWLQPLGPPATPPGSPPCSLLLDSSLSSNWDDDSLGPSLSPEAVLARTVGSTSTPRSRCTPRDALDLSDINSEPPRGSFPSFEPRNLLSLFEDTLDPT

[7] = biological target: Casein kinase I isoform gamma-1 (Homo sapiens) (UniProt Q9HCP0)
[8] = biological target: Dual specificity mitogen-activated protein kinase kinase 3 (Homo sapiens) (UniProt P46734)
[9] = biological target: Serine/threonine-protein kinase B-raf (Homo sapiens) (UniProt P15056)
[10] = biological target: MAP/microtubule affinity-regulating kinase 4 (Homo sapiens) (UniProt Q96L34)
[11] = biological target: Serine/threonine-protein kinase VRK2 (Homo sapiens) (UniProt Q86Y07)
[12] = biological target: Ephrin type-A receptor 7 (Homo sapiens) (UniProt Q15375)
[13] = biological target: Alpha-2A adrenergic receptor (Homo sapiens) (UniProt P08913); conditions: Compound concentration 10.0 uM
[14] = biological target: cGMP-dependent protein kinase 2 (Homo sapiens) (UniProt Q13237)
[15] = biological target: Muscarinic acetylcholine receptor M4 (Homo sapiens) (UniProt P08173); conditions: Compound concentration 10.0 uM
[16] = biological target: Dual specificity mitogen-activated protein kinase kinase 2 (Homo sapiens) (UniProt P36507)
Chain of Dual specificity mitogen-activated protein kinase kinase 2 (Homo sapiens) (P36507 whole entry): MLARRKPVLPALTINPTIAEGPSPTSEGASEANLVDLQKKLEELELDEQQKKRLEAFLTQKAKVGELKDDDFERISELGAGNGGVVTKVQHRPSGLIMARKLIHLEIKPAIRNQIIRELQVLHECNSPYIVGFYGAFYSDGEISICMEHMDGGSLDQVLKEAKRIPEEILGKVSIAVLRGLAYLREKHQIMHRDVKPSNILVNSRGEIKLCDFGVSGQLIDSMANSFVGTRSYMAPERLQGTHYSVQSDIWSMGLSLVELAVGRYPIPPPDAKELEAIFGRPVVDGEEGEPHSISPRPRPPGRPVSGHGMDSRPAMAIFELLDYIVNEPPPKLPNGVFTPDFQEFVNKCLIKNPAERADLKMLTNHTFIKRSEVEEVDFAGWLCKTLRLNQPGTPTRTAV

[17] = test system: Mast/stem cell growth factor receptor Kit (Homo sapiens), P10721 [V559D]
[18] = biological target: Interleukin-1 receptor-associated kinase 3 (Homo sapiens) (UniProt Q9Y616)
[19] = biological target: 5'-AMP-activated protein kinase catalytic subunit alpha-1 (Homo sapiens) (UniProt Q13131)
[20] = test system: Tyrosine-protein kinase ABL1 (Homo sapiens), P00519 [F317L]
Chain of Tyrosine-protein kinase ABL1 (Homo sapiens), P00519 [F317L] (P00519 whole entry F317L): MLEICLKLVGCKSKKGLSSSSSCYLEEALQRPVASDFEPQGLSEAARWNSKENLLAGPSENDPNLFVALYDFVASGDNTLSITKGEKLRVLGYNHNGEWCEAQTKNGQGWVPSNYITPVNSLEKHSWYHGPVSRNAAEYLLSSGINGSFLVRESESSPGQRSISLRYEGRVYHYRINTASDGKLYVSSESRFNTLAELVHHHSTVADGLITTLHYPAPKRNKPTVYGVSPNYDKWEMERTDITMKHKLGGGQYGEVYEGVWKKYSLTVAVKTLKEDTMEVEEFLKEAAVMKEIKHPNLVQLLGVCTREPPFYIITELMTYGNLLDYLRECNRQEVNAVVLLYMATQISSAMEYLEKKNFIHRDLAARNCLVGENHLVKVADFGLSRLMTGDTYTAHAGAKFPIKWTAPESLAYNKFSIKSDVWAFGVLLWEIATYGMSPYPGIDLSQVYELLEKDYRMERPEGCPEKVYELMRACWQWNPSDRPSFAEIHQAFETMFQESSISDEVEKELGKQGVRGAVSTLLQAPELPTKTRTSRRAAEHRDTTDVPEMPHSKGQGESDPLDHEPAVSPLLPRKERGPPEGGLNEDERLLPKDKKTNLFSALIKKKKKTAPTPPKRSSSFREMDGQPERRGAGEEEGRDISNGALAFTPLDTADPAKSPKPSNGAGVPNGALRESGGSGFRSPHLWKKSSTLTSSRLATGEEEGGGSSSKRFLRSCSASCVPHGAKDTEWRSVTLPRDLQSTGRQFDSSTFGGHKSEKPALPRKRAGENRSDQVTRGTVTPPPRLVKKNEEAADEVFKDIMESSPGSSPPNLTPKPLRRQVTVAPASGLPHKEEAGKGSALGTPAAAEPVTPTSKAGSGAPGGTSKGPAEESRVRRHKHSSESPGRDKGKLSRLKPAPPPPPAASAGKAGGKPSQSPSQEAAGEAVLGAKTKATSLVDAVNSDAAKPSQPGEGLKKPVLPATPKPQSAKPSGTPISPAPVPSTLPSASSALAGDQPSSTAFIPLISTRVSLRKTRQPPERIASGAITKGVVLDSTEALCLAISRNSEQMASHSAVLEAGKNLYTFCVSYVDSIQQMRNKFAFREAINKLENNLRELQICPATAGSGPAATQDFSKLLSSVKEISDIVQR

[21] = biological target: Inhibitor of nuclear factor kappa-B kinase subunit alpha (Homo sapiens) (UniProt O15111)
[22] = biological target: 5-hydroxytryptamine receptor 3A (Homo sapiens) (UniProt P46098); conditions: Compound concentration 10.0 uM
[23] = biological target: Mast/stem cell growth factor receptor Kit (Homo sapiens) (UniProt P10721)
Chain of Mast/stem cell growth factor receptor Kit (Homo sapiens) (P10721 whole entry): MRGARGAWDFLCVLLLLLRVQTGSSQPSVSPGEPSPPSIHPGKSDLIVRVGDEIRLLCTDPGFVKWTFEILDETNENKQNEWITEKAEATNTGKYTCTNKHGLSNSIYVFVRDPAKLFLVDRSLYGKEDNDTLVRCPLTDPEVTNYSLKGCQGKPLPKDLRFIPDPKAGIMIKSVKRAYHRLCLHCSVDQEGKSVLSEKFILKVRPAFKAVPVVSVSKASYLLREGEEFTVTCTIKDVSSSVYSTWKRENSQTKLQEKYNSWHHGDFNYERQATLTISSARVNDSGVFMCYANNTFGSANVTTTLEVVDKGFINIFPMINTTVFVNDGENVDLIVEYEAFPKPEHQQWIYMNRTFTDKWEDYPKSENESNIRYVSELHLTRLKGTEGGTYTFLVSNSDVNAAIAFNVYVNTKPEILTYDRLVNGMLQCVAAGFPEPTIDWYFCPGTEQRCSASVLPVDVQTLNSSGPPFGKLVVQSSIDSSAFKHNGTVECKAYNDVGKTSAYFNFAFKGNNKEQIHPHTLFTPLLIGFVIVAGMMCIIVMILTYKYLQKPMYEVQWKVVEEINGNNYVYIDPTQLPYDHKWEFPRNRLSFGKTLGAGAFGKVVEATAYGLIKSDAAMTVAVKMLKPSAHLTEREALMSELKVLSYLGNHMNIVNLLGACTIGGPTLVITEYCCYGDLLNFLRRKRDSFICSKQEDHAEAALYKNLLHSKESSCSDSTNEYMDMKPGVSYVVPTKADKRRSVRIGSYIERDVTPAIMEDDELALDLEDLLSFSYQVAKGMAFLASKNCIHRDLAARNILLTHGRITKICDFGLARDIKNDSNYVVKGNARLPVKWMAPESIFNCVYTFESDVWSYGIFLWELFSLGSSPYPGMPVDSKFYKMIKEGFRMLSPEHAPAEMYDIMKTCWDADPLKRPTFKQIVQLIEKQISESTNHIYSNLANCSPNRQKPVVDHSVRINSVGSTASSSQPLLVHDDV

[24] = biological target: Dual specificity mitogen-activated protein kinase kinase 6 (Homo sapiens) (UniProt P52564)
Chain of Dual specificity mitogen-activated protein kinase kinase 6 (Homo sapiens) (P52564 whole entry): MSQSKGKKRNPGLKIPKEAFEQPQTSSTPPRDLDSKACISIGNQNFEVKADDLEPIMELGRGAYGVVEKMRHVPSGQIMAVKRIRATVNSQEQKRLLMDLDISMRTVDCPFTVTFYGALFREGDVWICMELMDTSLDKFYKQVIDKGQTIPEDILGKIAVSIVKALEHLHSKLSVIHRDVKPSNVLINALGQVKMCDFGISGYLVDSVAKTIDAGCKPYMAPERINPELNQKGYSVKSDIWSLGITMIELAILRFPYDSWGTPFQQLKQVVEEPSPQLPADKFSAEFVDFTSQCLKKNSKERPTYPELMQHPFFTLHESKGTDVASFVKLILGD

[25] = biological target: Serine/threonine-protein kinase LATS1 (Homo sapiens) (UniProt O95835)
[26] = biological target: Myotonin-protein kinase (Homo sapiens) (UniProt Q09013)
[27] = biological target: Serine/threonine-protein kinase Nek2 (Homo sapiens) (UniProt P51955)
[28] = test system: Serine/threonine-protein kinase B-raf (Homo sapiens), P15056 [V600E]
[29] = biological target: Phosphatidylinositol 5-phosphate 4-kinase type-2 beta (Homo sapiens) (UniProt P78356)
[30] = biological target: Serine/threonine-protein kinase ICK (Homo sapiens) (UniProt Q9UPZ9)
[31] = test system: Receptor-type tyrosine-protein kinase FLT3 (Homo sapiens), P36888 [D835Y]
[32] = biological target: Tyrosine-protein kinase Fgr (Homo sapiens) (UniProt P09769)
[33] = biological target: Mitogen-activated protein kinase 13 (Homo sapiens) (UniProt O15264)
[34] = biological target: Cyclin-dependent kinase 8 (Homo sapiens) (UniProt P49336)
[35] = biological target: Mitogen-activated protein kinase kinase kinase 6 (Homo sapiens) (UniProt O95382)
[36] = biological target: Serine/threonine-protein kinase TNNI3K (Homo sapiens) (UniProt Q59H18)
Chain of Serine/threonine-protein kinase TNNI3K (Homo sapiens) (Q59H18 whole entry): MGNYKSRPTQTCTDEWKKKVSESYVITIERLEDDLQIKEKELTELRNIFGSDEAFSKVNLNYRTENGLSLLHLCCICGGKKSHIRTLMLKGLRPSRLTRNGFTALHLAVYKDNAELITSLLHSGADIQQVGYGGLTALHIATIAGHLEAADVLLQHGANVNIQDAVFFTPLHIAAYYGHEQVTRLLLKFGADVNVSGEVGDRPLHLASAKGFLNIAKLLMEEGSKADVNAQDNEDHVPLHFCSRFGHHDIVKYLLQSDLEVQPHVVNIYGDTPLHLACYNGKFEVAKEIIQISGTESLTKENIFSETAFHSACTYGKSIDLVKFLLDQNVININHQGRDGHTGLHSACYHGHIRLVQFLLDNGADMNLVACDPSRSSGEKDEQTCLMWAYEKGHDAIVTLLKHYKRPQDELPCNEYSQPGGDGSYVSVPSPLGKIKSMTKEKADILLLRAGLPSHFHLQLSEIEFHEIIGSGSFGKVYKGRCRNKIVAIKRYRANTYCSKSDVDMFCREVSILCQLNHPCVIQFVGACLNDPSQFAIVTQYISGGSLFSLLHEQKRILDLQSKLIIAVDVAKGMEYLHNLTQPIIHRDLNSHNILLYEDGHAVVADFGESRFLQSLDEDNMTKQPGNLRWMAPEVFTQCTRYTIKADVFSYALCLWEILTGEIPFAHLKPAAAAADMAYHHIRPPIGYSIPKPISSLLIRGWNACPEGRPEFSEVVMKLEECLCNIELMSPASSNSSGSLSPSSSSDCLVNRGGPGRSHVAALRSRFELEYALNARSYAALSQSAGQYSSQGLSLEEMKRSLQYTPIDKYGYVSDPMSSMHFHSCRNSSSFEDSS

[37] = biological target: MAP kinase-interacting serine/threonine-protein kinase 1 (Homo sapiens) (UniProt Q9BUB5)
[38] = biological target: Serine/threonine-protein kinase Nek9 (Homo sapiens) (UniProt Q8TD19)
[39] = biological target: Fibroblast growth factor receptor 3 (Homo sapiens, UniProt P22607)
[40] = biological target: Activin receptor type-1 (Homo sapiens) (UniProt Q04771)
[41] = test system: Receptor-type tyrosine-protein kinase FLT3 (Homo sapiens), P36888 [N841I]
[42] = biological target: Non-receptor tyrosine-protein kinase TNK1 (Homo sapiens) (UniProt Q13470)
[43] = test system: Phosphatidylinositol 4,5-bisphosphate 3-kinase catalytic subunit alpha isoform (Homo sapiens), P42336 [I800L]
[44] = biological target: Sigma intracellular receptor 2 (Homo sapiens, UniProt Q5BJF2); assay: GPCRScan assay: inhibition of Sigma 2; parameters: radioligand conc. used [nm] 5.0, parental cells HEKT
Chain of Sigma intracellular receptor 2 (Q5BJF2 whole entry): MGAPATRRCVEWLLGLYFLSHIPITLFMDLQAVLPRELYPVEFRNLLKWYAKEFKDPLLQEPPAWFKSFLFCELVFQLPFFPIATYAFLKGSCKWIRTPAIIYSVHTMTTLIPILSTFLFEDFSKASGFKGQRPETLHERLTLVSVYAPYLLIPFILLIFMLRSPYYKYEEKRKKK

[45] = Compound concentration 1000.0 nM
[46] = Compound concentration 100.0 nM

SMILES: Cc1cc(NC(=O)c2cccc(S(F)(F)(F)(F)F)c2)cc(-n2ccn3nc(-c4cccnc4)cc23)c1 [BAY-309]
- residual activity [1, 45]: 85.3%
- residual activity [2, 45]: 100%
- residual activity [3, 45]: 100%
- residual activity [4, 45]: 57.5%
- residual activity [5, 45]: 74.8%
- residual activity [6, 45]: 100%
- residual activity [7, 45]: 100%
- residual activity [8, 45]: 62.1%
- residual activity [9, 45]: 43.5%
- residual activity [10, 45]: 84.8%
- residual activity [11, 45]: 100%
- residual activity [12, 45]: 91.2%
- inhibition [13]: 15.8%
- residual activity [14, 45]: 100%
- inhibition [15]: 14.6%
- residual activity [16, 45]: 93.3%
- residual activity [17, 45]: 73.5%
- residual activity [18, 45]: 100%
- residual activity [19, 45]: 100%
- residual activity [20, 45]: 100%
- residual activity [21, 45]: 71.1%
- inhibition [22]: -8.73%
- residual activity [23, 45]: 89.5%
- residual activity [24, 45]: 100%
- residual activity [25, 45]: 100%
- residual activity [26, 45]: 100%
- residual activity [27, 45]: 90.8%
- residual activity [28, 45]: 24.4%
- residual activity [29, 45]: 100%
- residual activity [30, 45]: 64.2%
- residual activity [31, 45]: 100%
- residual activity [32, 45]: 100%
- residual activity [33, 45]: 79.6%
- residual activity [34, 45]: 86.2%
- residual activity [35, 45]: 62.7%
- residual activity [36, 45]: 100%
- residual activity [37, 45]: 100%
- residual activity [38, 45]: 100%
- residual activity [39, 45]: 90.7%
- residual activity [40, 45]: 100%
- residual activity [41, 45]: 100%
- residual activity [42, 45]: 95%
- residual activity [43, 45]: 96%
- Ki ([44]; read-out: Ki): 796 nM
- Ki ([44]; read-out: pKi (converted)): 789 nM

SMILES: Cc1cc(C)c(-n2ccn3nc(-c4cccnc4)cc23)cc1NC(=O)c1cc(C#N)cc(S(F)(F)(F)(F)F)c1 [BAY-826]
- residual activity [1, 46]: 81.8%
- residual activity [2, 46]: 95%
- residual activity [3, 46]: 69.3%
- residual activity [4, 46]: 86.1%
- residual activity [5, 46]: 90.6%
- residual activity [6, 46]: 100%
- residual activity [7, 46]: 91.1%
- residual activity [8, 46]: 81.9%
- residual activity [9, 46]: 89.4%
- residual activity [10, 46]: 92.4%
- residual activity [11, 46]: 79.8%
- residual activity [12, 46]: 92%
- inhibition [13]: 11.1%
- residual activity [14, 46]: 82.7%
- inhibition [15]: 14.9%
- residual activity [16, 46]: 74.4%
- residual activity [17, 46]: 45.6%
- residual activity [18, 46]: 75.2%
- residual activity [19, 46]: 77%
- residual activity [20, 46]: 26.6%
- residual activity [21, 46]: 100%
- inhibition [22]: 18.4%
- residual activity [23, 46]: 44.5%
- residual activity [24, 46]: 100%
- residual activity [25, 46]: 83.9%
- residual activity [26, 46]: 95.6%
- residual activity [27, 46]: 98.6%
- residual activity [28, 46]: 100%
- residual activity [29, 46]: 52.2%
- residual activity [30, 46]: 74.1%
- residual activity [31, 46]: 91.4%
- residual activity [32, 46]: 84.9%
- residual activity [33, 46]: 65.6%
- residual activity [34, 46]: 76.7%
- residual activity [35, 46]: 100%
- residual activity [36, 46]: 85.8%
- residual activity [37, 46]: 83.8%
- residual activity [38, 46]: 72.2%
- residual activity [39, 46]: 95.6%
- residual activity [40, 46]: 83.3%
- residual activity [41, 46]: 95.3%
- residual activity [42, 46]: 87.6%
- residual activity [43, 46]: 92.8%
- Ki ([44]; read-out: Ki): 984 nM
- Ki ([44]; read-out: pKi (converted)): 955 nM
